Structures can show the parent of a compound that is named as a salt.
How the values were obtained:
Format in all cases: biochemical
[1] = target: T1, recombinant human DAO (diamine oxidase) (Homo sapiens, UniProt P19801); assay: Activity on recombinant human DAO, method similar to the VAP-1 assay; settings: substrate 1 mM putrescine; read-out: Inhibitory Activity (IC50, nM) DAO
T1 construct: purchased R&D systems
T1 sequence (P19801 20-751): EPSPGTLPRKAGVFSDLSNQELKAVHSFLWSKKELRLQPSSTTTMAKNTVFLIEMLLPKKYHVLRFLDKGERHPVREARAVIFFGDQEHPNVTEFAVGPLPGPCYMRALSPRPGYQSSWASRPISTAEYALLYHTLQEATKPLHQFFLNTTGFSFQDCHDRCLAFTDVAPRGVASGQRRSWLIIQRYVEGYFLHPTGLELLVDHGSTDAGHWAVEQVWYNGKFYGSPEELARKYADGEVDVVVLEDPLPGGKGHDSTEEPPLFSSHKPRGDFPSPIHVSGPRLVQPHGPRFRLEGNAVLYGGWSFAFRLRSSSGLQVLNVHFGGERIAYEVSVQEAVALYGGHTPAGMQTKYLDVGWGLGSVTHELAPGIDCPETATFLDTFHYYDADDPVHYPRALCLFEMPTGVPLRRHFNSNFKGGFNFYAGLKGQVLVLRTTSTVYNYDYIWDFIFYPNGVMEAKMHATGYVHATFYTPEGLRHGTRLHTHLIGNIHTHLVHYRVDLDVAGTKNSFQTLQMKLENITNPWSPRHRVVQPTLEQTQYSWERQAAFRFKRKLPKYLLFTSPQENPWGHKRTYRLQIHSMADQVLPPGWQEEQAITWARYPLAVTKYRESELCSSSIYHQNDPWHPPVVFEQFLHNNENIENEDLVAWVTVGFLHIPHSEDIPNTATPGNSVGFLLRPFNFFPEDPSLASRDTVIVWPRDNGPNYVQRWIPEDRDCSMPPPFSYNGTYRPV
Outline: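 Inhibition of recombinant human diamine oxidase (DAO, R&D systems) was assessed by the same approach as the VAP-1 assay, using 1 mM putrescine as substrate. Hydrogen peroxide formed was detected through an HRP-coupled Amplex Red reaction yielding fluorescent resorufin, read at 544 nm excitation and 590 nm emission. IC50 values came from four-parameter logistic fitting in GraphPad Prism.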

[2] = target: T2, recombinant human MAO-B (monoamine oxidase-B) (Homo sapiens, UniProt P27338); assay: Activity on recombinant human MAO-B, method similar to the VAP-1 assay; settings: substrate 1 mM benzylamine; read-out: Inhibitory Activity (IC50, nM) MAO-B
T2 construct: purchased Sigma-Aldrich
T2 sequence (P27338 1-520): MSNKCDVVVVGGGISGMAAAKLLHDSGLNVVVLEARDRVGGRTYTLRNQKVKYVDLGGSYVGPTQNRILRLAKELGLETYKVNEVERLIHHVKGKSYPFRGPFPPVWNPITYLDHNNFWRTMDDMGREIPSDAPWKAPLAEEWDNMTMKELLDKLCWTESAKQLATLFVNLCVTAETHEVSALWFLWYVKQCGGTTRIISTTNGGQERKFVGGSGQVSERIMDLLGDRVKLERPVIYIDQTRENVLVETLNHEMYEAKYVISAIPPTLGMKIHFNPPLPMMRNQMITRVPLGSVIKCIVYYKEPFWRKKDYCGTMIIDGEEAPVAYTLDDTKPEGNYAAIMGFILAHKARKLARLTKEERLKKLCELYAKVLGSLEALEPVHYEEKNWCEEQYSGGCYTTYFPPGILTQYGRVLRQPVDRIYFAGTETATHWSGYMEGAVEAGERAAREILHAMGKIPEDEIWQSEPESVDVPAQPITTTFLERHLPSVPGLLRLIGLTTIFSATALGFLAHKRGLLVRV
Outline: (§1)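 Enzyme preincubated with compound 30 min at 37 °C in 50 mM sodium phosphate pH 7.4, final DMSO below 1%. Substrate was 0.5 mM tyramine for MAO-A and 1 mM benzylamine for MAO-B, with 200 uM Amplex Red and 1 U/mL HRP. H2O2-coupled resorufin fluorescence (ex 544/em 590) followed over 1–2 h; 8-point 4-parameter IC50.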

[3] = target: T3, recombinant human MAO-A (monoamine oxidase-A) (Homo sapiens, UniProt P21397); assay: Activity on recombinant human MAO-A, method similar to the VAP-1 assay; settings: substrate 0.5 mM tyramine; read-out: Inhibitory Activity (IC50, nM) MAO-A
T3 construct: purchased Sigma-Aldrich
T3 sequence (P21397 1-527): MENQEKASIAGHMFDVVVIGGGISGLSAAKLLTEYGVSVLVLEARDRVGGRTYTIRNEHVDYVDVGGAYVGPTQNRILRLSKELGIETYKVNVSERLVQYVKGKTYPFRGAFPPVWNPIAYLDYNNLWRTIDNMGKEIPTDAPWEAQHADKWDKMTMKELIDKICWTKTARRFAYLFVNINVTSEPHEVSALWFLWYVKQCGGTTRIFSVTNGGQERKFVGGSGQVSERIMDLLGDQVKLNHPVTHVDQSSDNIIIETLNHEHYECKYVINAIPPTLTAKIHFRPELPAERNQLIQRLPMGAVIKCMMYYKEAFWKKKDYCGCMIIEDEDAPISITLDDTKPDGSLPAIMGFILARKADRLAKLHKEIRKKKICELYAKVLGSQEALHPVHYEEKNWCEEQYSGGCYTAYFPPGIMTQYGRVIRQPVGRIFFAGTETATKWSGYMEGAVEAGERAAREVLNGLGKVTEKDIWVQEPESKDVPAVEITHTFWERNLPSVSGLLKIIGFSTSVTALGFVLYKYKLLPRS
Outline: as §1

recombinant human VAP-1 = target: T4, recombinant human VAP-1 (Homo sapiens, UniProt Q16853); assay: Activity on recombinant human VAP-1, HRP-coupled Amplex Red hydrogen peroxide assay; settings: substrate 1 mM benzylamine; compound incubated with enzyme at 37° C. for 30 minutes; pH 7.4; read-out: Inhibitory Activity (IC50, nM) human VAP-1
T4 construct: purchased R&D systems
T4 sequence (Q16853 1-763): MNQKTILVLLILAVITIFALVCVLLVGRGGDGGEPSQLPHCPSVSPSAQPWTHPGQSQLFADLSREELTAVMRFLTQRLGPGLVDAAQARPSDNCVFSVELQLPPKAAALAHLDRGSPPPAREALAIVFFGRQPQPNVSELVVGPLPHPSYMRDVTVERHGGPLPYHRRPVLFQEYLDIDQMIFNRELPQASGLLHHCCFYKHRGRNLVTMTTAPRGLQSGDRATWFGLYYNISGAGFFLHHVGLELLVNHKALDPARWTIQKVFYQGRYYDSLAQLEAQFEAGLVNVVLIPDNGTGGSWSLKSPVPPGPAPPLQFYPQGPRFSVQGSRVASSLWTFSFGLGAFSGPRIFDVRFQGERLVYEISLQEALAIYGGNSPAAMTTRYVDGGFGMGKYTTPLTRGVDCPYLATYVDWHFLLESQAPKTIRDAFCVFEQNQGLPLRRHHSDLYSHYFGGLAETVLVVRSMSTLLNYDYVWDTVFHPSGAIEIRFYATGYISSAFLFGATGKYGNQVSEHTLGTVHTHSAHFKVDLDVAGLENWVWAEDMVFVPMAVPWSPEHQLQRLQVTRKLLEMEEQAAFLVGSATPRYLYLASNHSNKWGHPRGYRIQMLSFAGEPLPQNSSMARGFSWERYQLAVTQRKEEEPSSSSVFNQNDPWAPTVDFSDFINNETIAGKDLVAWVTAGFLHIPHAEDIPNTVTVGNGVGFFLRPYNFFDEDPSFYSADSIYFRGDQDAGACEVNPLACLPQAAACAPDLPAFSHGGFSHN
Outline: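 Enzyme in 50 mM sodium phosphate pH 7.4 preincubated with compound 30 min at 37 °C, then 1 mM benzylamine, 200 µM Amplex Red and 1 U/mL HRP added. H2O2-derived resorufin fluorescence (ex 544/em 590 nm) followed over 1–2 h; signal-rate decrease versus DMSO control, 8-point curve, four-parameter logistic IC50.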

How did the IC50 [1] turn out when `CC(C)(C)NS(=O)(=O)c1cncc(-c2ccc(Cn3cnn(C/C(=C/F)CN)c3=O)s2)c1` [Example 43, 5-[5-(1-[(2E)-2-(aminomethyl)-3-fluoroprop-2-en-1-yl]-5-oxo-1,5-dihydro-4H-1,2,4-triazol-4-ylmethyl)thiophen-2-yl]-N-tert-butylpyridin-3-sulfonamide hydrochloride] was run?
The IC50 was 110 nM.

What about the IC50 [2] of the same molecule?
The IC50 was over 10000 nM.

And the IC50 [3]?
Its IC50 is over 100000 nM.

And the IC50 (recombinant human VAP-1)?
The IC50 was 4.1 nM.

Which results are given for `COc1ccc(-c2ccc(Cn3cnn(C/C(=C/F)CN)c3=O)s2)cn1` [Example 45, 2-[(2E)-2-(aminomethyl)-3-fluoroprop-2-en-1-yl]-4-[5-(6-methoxypyridin-3-yl)thiophen-2-yl]methyl-2,4-dihydro-3H-1,2,4-triazol-3-one hydrochloride]?
IC50 [1]: 330 nM; IC50 [2]: 400 nM; IC50 [3]: > 100000 nM; IC50 (recombinant human VAP-1): 1.1 nM

How did the IC50 [1] turn out when `CSc1ccc(-c2ccc(Cn3cnn(C/C(=C/F)CN)c3=O)s2)cn1` [Example 46, 2-[(2E)-2-(aminomethyl)-3-fluoroprop-2-en-1-yl]-4-(5-[6-(methylsulfanyl)pyridin-3-yl]thiophen-2-ylmethyl)-2,4-dihydro-3H-1,2,4-triazol-3-one hydrochloride] was run?
Its IC50 is 380 nM.

What about the IC50 [2] of the same molecule?
The IC50 was 740 nM.

What about the IC50 [3] of the same molecule?
The IC50 was over 10000 nM.

And the IC50 (recombinant human VAP-1)?
Its IC50 is 1.3 nM.

With `NC/C(=C\F)Cn1ncn(Cc2ccc(-c3ccc(OCC(F)(F)F)nc3)s2)c1=O` [Example 47, 2-[(2E)-2-(aminomethyl)-3-fluoroprop-2-en-1-yl]-4-(5-[6-(2,2,2-trifluoroethoxy)pyridin-3-yl]thiophen-2-ylmethyl)-2,4-dihydro-3H-1,2,4-triazol-3-one hydrochloride] as the molecule, how does the IC50 [1] read?
Its IC50 is 530 nM.

What about the IC50 [2] of the same molecule?
The IC50 was 980 nM.

And the IC50 [3]?
The IC50 was over 100000 nM.

And the IC50 (recombinant human VAP-1)?
Its IC50 is 4.7 nM.

Which results are given for `NC/C(=C\F)Cn1ncn(Cc2ccc(-c3ccc(C(F)(F)F)nc3)s2)c1=O` [Example 49, 2-[(2E)-2-(aminomethyl)-3-fluoroprop-2-en-1-yl]-4-(5-[6-(trifluoromethyl)pyridin-3-yl]thiophen-2-ylmethyl)-2,4-dihydro-3H-1,2,4-triazol-3-one hydrochloride]?
IC50 [1]: 98 nM; IC50 [2]: 360 nM; IC50 [3]: > 100000 nM; IC50 (recombinant human VAP-1): 0.5 nM

With `N#Cc1ccc(-c2ccc(Cn3cnn(C/C(=C/F)CN)c3=O)s2)cn1` [Example 50, 5-[5-(1-[(2E)-2-(aminomethyl)-3-fluoroprop-2-en-1-yl]-5-oxo-1,5-dihydro-4H-1,2,4-triazol-4-ylmethyl)thiophen-2-yl]pyridine-2-carbonitrile hydrochloride] as the molecule, how does the IC50 [1] read?
The IC50 was 360 nM.

What about the IC50 [2] of the same molecule?
The IC50 was 3700 nM.

What about the IC50 [3] of the same molecule?
Its IC50 is over 100000 nM.

And the IC50 (recombinant human VAP-1)?
Its IC50 is 0.5 nM.

How did the IC50 [1] turn out when `NC/C(=C\F)Cn1ncn(Cc2ccc(-c3ccc(N4CCCCC4)nc3)s2)c1=O` [Example 52, 2-[(2E)-2-(aminomethyl)-3-fluoroprop-2-en-1-yl]-4-(5-[6-(piperidin-1-yl)pyridin-3-yl]thiophen-2-ylmethyl)-2,4-dihydro-3H-1,2,4-triazol-3-one hydrochloride] was run?
Its IC50 is 170 nM.

And the IC50 [2]?
Its IC50 is 640 nM.

And the IC50 [3]?
Its IC50 is over 100000 nM.

What about the IC50 (recombinant human VAP-1) of the same molecule?
Its IC50 is 0.8 nM.

What does the source list for `CN(C)c1ncc(-c2ccc(Cn3cnn(C/C(=C/F)CN)c3=O)s2)cn1` [Example 55, 2-[(2E)-2-(aminomethyl)-3-fluoroprop-2-en-1-yl]-4-(5-[2-(dimethylamino)pyrimidin-5-yl]thiophen-2-ylmethyl)-2,4-dihydro-3H-1,2,4-triazol-3-one hydrochloride]?
IC50 [1]: 180 nM; IC50 [2]: 6400 nM; IC50 [3]: > 100000 nM; IC50 (recombinant human VAP-1): 0.5 nM

Which results are given for `CSc1ncc(-c2ccc(Cn3cnn(C/C(=C/F)CN)c3=O)s2)cn1` [Example 56, 2-[(2E)-2-(aminomethyl)-3-fluoroprop-2-en-1-yl]-4-(5-[2-(methylsulfanyl)pyrimidin-5-yl]thiophen-2-ylmethyl)-2,4-dihydro-3H-1,2,4-triazol-3-one hydrochloride]?
IC50 [1]: 40 nM; IC50 [2]: 4200 nM; IC50 [3]: > 100000 nM; IC50 (recombinant human VAP-1): 0.4 nM

How did the IC50 [1] turn out when `NC/C(=C\F)Cn1ncn(Cc2ccc(-c3cnc(N4CCOCC4)nc3)s2)c1=O` [Example 57, 2-[(2E)-2-(aminomethyl)-3-fluoroprop-2-en-1-yl]-4-(5-[2-(morpholin-4-yl)pyrimidin-5-yl]thiophen-2-ylmethyl)-2,4-dihydro-3H-1,2,4-triazol-3-one hydrochloride] was run?
Its IC50 is 83 nM.

What about the IC50 [2] of the same molecule?
The IC50 was 1600 nM.

What about the IC50 [3] of the same molecule?
The IC50 was 6600 nM.

And the IC50 (recombinant human VAP-1)?
The IC50 was 2.2 nM.

For `CN1CC=C(c2ccc(Cn3cnn(C/C(=C/F)CN)c3=O)s2)CC1` [Example 58, 2-[(2E)-2-(aminomethyl)-3-fluoroprop-2-en-1-yl]-4-[5-(1-methyl-1,2,3,6-tetrahydropyridin-4-yl)thiophen-2-yl]methyl-2,4-dihydro-3H-1,2,4-triazol-3-one hydrochloride], which IC50 [1] is on record?
The IC50 was 780 nM.

And the IC50 [2]?
The IC50 was over 10000 nM.

And the IC50 [3]?
Its IC50 is over 100000 nM.

And the IC50 (recombinant human VAP-1)?
Its IC50 is 3.9 nM.

For `CC(=O)N1CC=C(c2ccc(Cn3cnn(C/C(=C/F)CN)c3=O)s2)CC1` [Example 59, 4-[[5-(1-acetyl-3,6-dihydro-2H-pyridin-4-yl)-2-thienyl]methyl]-2-[(E)-2-(aminomethyl)-3-fluoro-allyl]-1,2,4-triazol-3-one], which IC50 [1] is on record?
Its IC50 is 1300 nM.

What about the IC50 [2] of the same molecule?
Its IC50 is 990 nM.

And the IC50 [3]?
The IC50 was over 100000 nM.

What about the IC50 (recombinant human VAP-1) of the same molecule?
The IC50 was 0.5 nM.
